Experimental data published in patent US11389415B2, “Methods of regulating cannabinoid receptor activity-related disorders and diseases” (The United States of America as represented by the …, priority 2012, dated 2022).

Tests used:
[1] = Dose escalation and 7-day repeat dose range finding study in Sprague-Dawley rats; assay type: in vivo, rat; conditions: for Gross Necropsy Observation: interim (Day 8) and terminal (Day 14), red: thymus, mandibular lymph node, black or necrosis: tail
Experimental: A single dose escalation study was performed to select dose levels for 7-day repeat dose study with IV administration in Sprague-Dawley rats. Dose levels were 0, 5, 10 and 25 mg/kg.

HepG2 cells = test: Scratch wound-healing assay, HepG2 cells; assay type: cell-based, human; conditions: HepG2, 1 μM
Experimental: Scratch assays. These assays were carried out essentially as described previously (Fiori et al., Endocrinology 150: 2551-2560, 2009). In brief, cells were seeded in 12-well nontreated polystyrene cell culture plates with flat bottom (Greiner Bio-One, Monroe, N.C.). Once the cells became confluent, a scratch wound was made with a pipette tip and pictured immediately (time 0). […] Cell migration was examined at 12, 24, 36, 48 hours and 12, 18, 24, 48 hours after scratch for the HepG2 and PANC-1 cells, respectively. Images of the same field were taken every 3 hours to determine the rate of cell migration. Images were captured on an Axiovert 200 inverted microscope (Carl Zeiss, Thornwood, N.Y.) mounted with an AxioCam HRc digital camera (Carl Zeiss) and the measurement of scratch area was performed with ImageJ 1.46s software (National Institutes of Health, Bethesda, Md.). Each study was performed in duplicate dishes and repeated at least twice.

[2] = In vitro metabolic stability, human liver microsomes; assay type: in vitro ADME; conditions: 37° C.
Experimental: FIG. 10 presents the data from the in vitro metabolic stability study in which MNF was incubated (in duplicate) with active and heat-inactivated human (HLM) and rat (RLM) liver microsomes and cofactors at 37° C. Aliquots were removed at 0, 15, 30 and 60 minutes and the amount of test compound (MNF) remaining at each time point was determined by LC-MS/MS.

[3] = MNF accumulation in vivo in C6 glioma tumors; set-up: species or system mouse; conditions: C6 xenograft tumors at completion of study
Experimental: Evaluation of MNF accumulation in vivo in C6 glioma tumors. The accumulation of MNF in vivo in C6 tumor xenografts in athymic mice was assessed in comparison with vehicle-treated tumor-bearing animals. The frozen tumor samples were thawed, and then homogenized. The concentration of MNF and its metabolites was determined by HPLC followed by LC-MS/MS. In brief, the assays were conducted using an Eclipse XDB-C18 guard column (4.6 mm×12.5 mm) and an Atlantis HILIC column (150×2.1 mm ID, […]). The mobile phase consisted of water containing 0.1% formic acid as component A and acetonitrile as component B. A linear gradient was run as follows: 0 minutes 95% B; 5 minutes 60% B; 6 minutes 80% B; 10 minutes 95% B at a flow rate of 1.0 ml/minute. The total run time was 15 minutes per sample. Identification and quantification of the analytes was accomplished using an API-4000 LC-MS/MS in positive electrospray ionization mode and data was acquired employing multiple reaction monitoring (MRM) and the following MRM transitions: MNF (369-200); MNF-Gluc (545-200). Tumor tissues from vehicle-injected mice were used as controls.

ERK1/2 = ERK1/2 phosphorylation (GPR55 downstream signaling) in HepG2 cells; assay type: cell-based, human
Experimental: Western blot analysis. For detection of intracellular signaling proteins, cells were lysed in radioimmunoprecipitation buffer containing EGTA and EDTA (Boston BioProducts, Ashland, Mass.). The lysis buffer contained a protease inhibitor cocktail (Sigma-Aldrich) and phosphatase inhibitor cocktail (Calbiochem, San Diego, Calif.). Equivalent amount of proteins (14 and 54 μg/well for PANC-1 and HepG2 cells, respectively) were separated on 4 to 12% precast gels (Invitrogen, Carlsbad, Calif.) using SDS-polyacrylamide gel electrophoresis under reducing conditions and then electrophoretically transferred onto polyvinylidene fluoride membrane (Invitrogen). Western blots were performed according to standard methods, which involved blocking in 5% non-fat milk and incubated with the antibody of interest, followed by incubation with a secondary antibody conjugated with the enzyme horseradish perodixase. The detection of immunoreactive bands was performed by chemiluminescence using the ECL Plus Western Blotting Detection System (GE Healthcare, Piscataway, N.J.). The quantification of bands was done by volume densitometry by using ImageJ software. The rabbit polyclonal antibodies against EGFR were obtained from Cell Signaling Technology, Inc. (Beverly, Mass.) and the monoclonal anti-Hsp90 was purchased from Santa Cruz Biotechnology, Inc. (Santa Cruz, Calif.).
Effect of MNF on O-1602-mediated increase in cell signaling. Serum-starved cells were pretreated in the absence or presence of 1 μM MNF for 10 minutes followed by a 10 minute incubation with 0, 2.5 and 10 μM O-1602 or 10% FBS, after which the levels of total ERK2 and phosphorylated forms of ERK1/2 (pErk1/2, Thr202/Tyr204), were determined by Western blotting technique. All primary antibodies were purchased from Cell Signaling Technology and used at a dilution recommended by the manufacturer.

GPR55 = GPR55 (Homo sapiens, UniProt Q9Y2T6); test: GPR55 internalization assay in hGPR55-HEK293 cells; assay type: cell-based; conditions: 1 μM pretreatment 45 minutes
GPR55, sequence (Q9Y2T6 whole entry): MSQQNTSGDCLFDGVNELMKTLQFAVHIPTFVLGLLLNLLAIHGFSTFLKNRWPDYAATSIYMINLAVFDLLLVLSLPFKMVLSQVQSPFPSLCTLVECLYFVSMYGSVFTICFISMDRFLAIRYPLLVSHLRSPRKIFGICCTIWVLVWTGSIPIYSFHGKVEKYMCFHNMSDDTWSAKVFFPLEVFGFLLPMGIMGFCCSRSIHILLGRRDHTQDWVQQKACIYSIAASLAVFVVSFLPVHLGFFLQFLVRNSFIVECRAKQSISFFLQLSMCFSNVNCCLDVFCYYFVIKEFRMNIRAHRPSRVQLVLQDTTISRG
Experimental: GPR55 internalization assay. Endocytosis of GPR55 was observed following a previously described protocol with minor modifications (Henstridge et al., Br. J. Pharmacol. 160: 604-614, 2010). Briefly, hGPR55-HEK293 cells were grown on Lab-Tek II CC2 chamber slides (Thermo Scientific Nunc, Rochester, N.Y.) for 48 hours in regular media and then were serum starved for 1 hour. A preincubation with 1:1000 rabbit HA antibody (Covance, Md.) was performed in the presence of vehicle (0.1% DMSO) or 1 μM MNF in serum-free media for 45 minutes at 37° C. in the CO2 incubator. Cells were then washed extensively with PBS and treated with 5 μM 01602 in serum-free media for 20 minutes at 37° C. in the CO2 incubator. Subsequently, cells were washed three times, fixed in fresh 3.7% paraformaldehyde in PBS (10 min), and incubated with anti-rabbit Alexa Fluor 488 antibody (Molecular Probes, Eugene, Oreg.; 1:1000, 30 minutes). Cells were washed and fixed for a second time prior to permeabilization with 0.2% Triton X-100 (5 minutes). Incubation with anti-rabbit Alexa Fluor 568 antibody (Molecular Probes; 1:1000, 30 minutes) was carried out to determine the extent of internalized GPR55-HA antibody complex. […]

SMILES: COc1ccc(C[C@@H](C)NC[C@H](O)c2cc(O)cc(O)c2)c2ccccc12 [(R,R′)-MNF, (R,R′)-4′-methoxy-1-naphthylfenoterol]
- Body Weight ([1]; Sprague Dawley rats, iv, 0, 5, 10, or 25 mg/kg/day, 7-day): comparable
- Clinical Pathology: increases in WBC, % Neut., % RET/REA, and PLC ([1]; high-dose males and females, Day 8 and Day 14): Increases: ~2-fold
- Gross Necropsy Observation ([1]; black discoloration or necrosis, tail): Discolored black
- Gross Necropsy Observation ([1]; red discoloration, thymus and lymph node): Discolored red:
- toxic effects ([1]; single dose escalation, IV, 0, 5, 10 and 25 mg/kg, Sprague-Dawley rats): Toxic effects were minimal
- cell motility, compound alone (HepG2 cells): had no effect on the motility of HepG2 cells
- effect on AM251-mediated increase in cell motility (HepG2 cells; AM251 1 μM): significant inhibitory effect toward AM251-mediated increase in cell motility
- effect on wound closure evoked by O-1602 (HepG2 cells; O-1602 1 μM): absent in HepG2 cells
- stability under the incubation conditions ([2]; heat-inactivated microsome controls): somewhat unstable under the incubation conditions
- metabolic stability, MNF levels ([2]; human liver microsomes and cofactors, 0-60 minutes): greater decrease in MNF levels
- tissue concentration of MNF in tumor ([3]; cohort 1, n=9): 141.0±52.5 ng/ml/g tissue
- tissue concentration of MNF in tumor ([3]; cohort 2, n=7): 214.4±65.5 ng/ml/g tissue
- effect on O-1602-mediated ERK phosphorylation (ERK1/2; HepG2, 1 μM pretreatment 10 minutes): abrogated O-1602 responsiveness
- effect on serum-induced ERK phosphorylation (ERK1/2; HepG2, 1 μM pretreatment, 10% FBS): potently inhibited serum-induced ERK phosphorylation in both cell lines
- effect on O-1602-induced GPR55 internalization (GPR55): blocked by pretreatment with MNF
